Values of other authors in US20040191345A1, “New formulations and use thereof” (priority 2003, published 2004).

Tests used:
[1] = n-octanol / phosphate buffer at pH 7.32
[2] = at room temperature

## Cc1ccc(O)c(C(CCN(C(C)C)C(C)C)c2ccccc2)c1 (stereo not drawn) [Tolterodine, N,N-diiso-propyl-3-(2-hydroxy-5-methylphenyl)-3-phenylpropanamine]
other
  pKa value: 9.87
[1]
  partition coefficient (Log P): 1.83
[2]
  solubility in water: about 11 mg/ml
